Values quoted from earlier work, collected in patent US20090236541A1, “System and Methods for Optical Imaging” (General Electric Company, priority 2008, published 2009).

Tests used:
[1] = test system: mitochondria and/or the endoplasmic reticulum; details: concentration-dependent manner
[2] = test system: heart of a living laboratory rat; details: living laboratory rat after a thoracotomy
[3] = small molecule form

Compound: CN1C(=CC=C2CCCC(C=CC3=[N+](C)c4ccccc4C3(C)C)=C2Cl)C(C)(C)c2ccccc21.[O-][Cl+3]([O-])([O-])[O-] [IR-786]
- partitioning into mitochondria and/or endoplasmic reticulum [1]: partitions efficiently into mitochondria and/or the endoplasmic reticulum
- imaging of blood flow in the heart [2]: successfully applied

Compound: CC1(C)C(/C=C/C=C/C=C/C=C2\N(CCCCS(=O)(=O)O)c3ccc4ccccc4c3C2(C)C)=[N+](CCCCS(=O)(=O)[O-])c2ccc3ccccc3c21 [Indocyanine green, indocyanine green]
- solubility in blood [3]: somewhat less soluble in blood
